Measurements from patent US9732046B2, “Substituted 1,2,4-triazines as tubulin inhibitors” (YM Biosciences Australia Pty Ltd., priority 2003, dated 2017).

Tests used:
DU145 (Prostate Cancer) = experiment: Cellular growth inhibition assay (MTT), DU145; format: cell-based; conditions: Homo sapiens
Method: (§1) For screening purposes, compounds were diluted in 96 well plates at a concentration of 20 μM. Plates were warmed at 37° C. for 30 minutes before assay.
(§2) K562 (Chronic Myeloid Leukemia), PC3 (Prostate Cancer), and DU145 (Prostate Cancer) were obtained from the American Type Culture Collection (ATCC). K562 was grown in RPMI, with 10% FBS with Glutamx added. DU145 cells were cultured in DMED, with 10% FBS and Glutamx and MEM non-essential amino acids added. PC3 cells were grown in F12K medium, with 10% FBS and Glutamx and MEM non-essential amino acids added. All cells were grown at 37° C. in 5% CO2.
(§3) Cell suspensions were prepared by harvesting cells from culture. (Cells used in this test should be in later log phase growth and high viability.) Cells were diluted in correct growth medium to 1.1× final concentration (from 50000 cell/mL to 200,000 cell/mL, depending on cell line).
(§4) Compounds to be tested were added (10 μL, 10× final concentration) to a flat bottom 96-well plate. The cellular suspension (90 μL per well) was added, and the plate incubated for 40 hr at 37° C., 5% CO2. MTT (20 μL per well, 5 mg/mL in PBS) was added and the plates were returned to the incubator for a further 6 hours. Lysis buffer (100 μL per well, 10% SDS, 0.01N HCl) was added and the plate stored in the incubator overnight. The plate was then read at 590 nm.

PC3 (Prostate Cancer) = experiment: Cellular growth inhibition assay (MTT), PC3; format: cell-based; conditions: Table 1, 40 hr incubation
Method: as §1, §2, §3, §4

[1] = system: K562 (Chronic Myeloid Leukemia); experiment: Cellular growth inhibition assay (MTT), K562; format: cell-based; conditions: Homo sapiens, Table 1, 40 hr incubation
Method: as §1, §2, §3, §4

[2] = biological target: T1, TelJak2 (BaF3 TELJAK cells, TEL/Jak2 fusion) (Homo sapiens, UniProt O60674); experiment: Cellular growth inhibition assay (MTT), BaF3 TEL:JAK2 cell line; format: cell-based
T1 construct: The regions encompassing the kinase domain of JAK2 (nucleotides 2994-3914); expressed in transfected cells; host or cells: BaF3 cells bearing the pTET-off plasmid, transfected with pTELJAK2 (pTRE2 vector); the other entry of the earlier key: ETV6 (P41212, Transcription factor ETV6)
Method: as §1
(§5) The coding region encompassing nucleotides 1-487 of TEL was amplified by PCR using the oligonucleotides 5TEL (5′-GGAGGATCCTGATCTCTCTCGCTGTGAGAC-3′) (SEQ ID NO: 1) and 3TEL (5′-AGGC GTCGACTTCTTCTTGATGGTTCTG-3′) (SEQ ID NO: 2) and U937 mRNA as template. A BamH I site was incorporated into the 5TEL primer, and a Sal I site was incorporated into the 3TEL primer. The regions encompassing the kinase domain of JAK2 (nucleotides 2994-3914; JAK2F 5′-ACGC GTCGACGGTGCCTTTGAAGACCGGGAT-3 (SEQ ID NO: 3); JAK2R 5′-ATAGTTTAGCGGCCGCTCAGAATGAAGGTCATTT-3′) (SEQ ID NO: 4) and JAK3 (nucleotides 2520-3469; JAK3F 5′-GAAGTCGACTATGCCTGCCAAGACCCCACGATCTT-3′ (SEQ ID NO: 5); JAK3R 5′-GGATCTAGACTATGAAAAGGACAGGGAGTGGTGTTT-3′ (SEQ ID NO: 6)) were generated by PCR using Taq DNA polymerase (Gibco/BRL) and U937 mRNA as template. A Sal I site was incorporated into the forward primer of JAK2 and JAK3, a Not I site was incorporated into the JAK2 reverse primer and a Xba I site was added to the reverse primer of JAK3.
(§6) A TEL/Jak2 fusion was generated by digestion of the TELPCR product with BamH I/Sa1 I, digestion of the JAK2 PCR product with Sa1 I/Not I followed by ligation and subcloning into the mammalian expression Vector pTRE 2 (Clontech) digested with BamH I-Not I (pTELJAK2). For JAK3 Sa1 I/Not I cleaved kinase domain PCR product was ligated with BamH I/Sa1 I cleaved TELproduct followed by ligation into BamH I/Not I cleaved pTRE2 (pTELJAK3).
(§7) The growth factor dependent myelomonocytic cell line BaF3 bearing the pTET-off plasmid (Clontech) was transfected with either pTELJAK2 or pTELJAK3 and the cells selected for factor independent growth. BaF 3 wild type cells were cultured in DMEM 10% FCS, 10% WEHI 3B conditioned medium. BaF3 TELJAK cells were cultured in DMEM 10% Tet-System Approved FBS (without WEHI 3B conditioned medium).
as §3, §4

[3] = biological target: T2, TelJak3 (BaF3 TELJAK cells, TEL/JAK3 fusion) (Homo sapiens, UniProt P52333); experiment: Cellular growth inhibition assay (MTT), BaF3 TEL:JAK3 cell line; format: cell-based
T2 construct: For JAK3 Sa1 I/Not I cleaved kinase domain PCR product was ligated with BamH I/Sa1 I cleaved TELproduct; expressed in transfected cells; host or cells: BaF3 cells bearing the pTET-off plasmid, transfected with pTELJAK3 (pTRE2 vector); the other entry of the earlier key: ETV6 (P41212, Transcription factor ETV6)
Method: as §1, §5, §6, §7, §3, §4

[4] = system: Tubulin (microtubule protein); experiment: Tubulin assay (turbidometric assay of microtubule assembly); format: biochemical; conditions: Table 2; 50 μM; absorbance at 340 nm, 37° C.
Method: Turbidometric assays of microtubule assembly were performed by incubating microtubule protein in cuvettes at 37° C. in a thermostatically controlled spectrophotometer measuring the change in absorbance at 340 nm over time. The microtubule protein was incubated with the each test compound at 0° C. and polymerisation was initiated by addition of 1 mM GTP, prior to heating to 37° C.

[5] = DU-145, Table 1, 40 hr incubation
[6] = DU-145, Table 2, 40 hr incubation

T2 sequence (P52333 with tags, fused parts or gaps): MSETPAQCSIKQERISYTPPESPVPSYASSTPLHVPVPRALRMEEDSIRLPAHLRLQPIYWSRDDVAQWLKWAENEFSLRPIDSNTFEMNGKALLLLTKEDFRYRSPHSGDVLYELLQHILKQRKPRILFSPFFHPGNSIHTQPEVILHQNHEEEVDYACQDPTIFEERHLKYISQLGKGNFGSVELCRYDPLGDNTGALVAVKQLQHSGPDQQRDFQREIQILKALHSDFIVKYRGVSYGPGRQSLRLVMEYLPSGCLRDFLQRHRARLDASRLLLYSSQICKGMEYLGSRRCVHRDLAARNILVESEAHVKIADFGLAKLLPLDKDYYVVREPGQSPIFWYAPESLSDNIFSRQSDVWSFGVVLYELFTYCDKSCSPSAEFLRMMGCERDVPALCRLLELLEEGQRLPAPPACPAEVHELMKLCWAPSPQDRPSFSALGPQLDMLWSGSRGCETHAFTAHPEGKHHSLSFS
T1 sequence (O60674 with tags, fused parts or gaps): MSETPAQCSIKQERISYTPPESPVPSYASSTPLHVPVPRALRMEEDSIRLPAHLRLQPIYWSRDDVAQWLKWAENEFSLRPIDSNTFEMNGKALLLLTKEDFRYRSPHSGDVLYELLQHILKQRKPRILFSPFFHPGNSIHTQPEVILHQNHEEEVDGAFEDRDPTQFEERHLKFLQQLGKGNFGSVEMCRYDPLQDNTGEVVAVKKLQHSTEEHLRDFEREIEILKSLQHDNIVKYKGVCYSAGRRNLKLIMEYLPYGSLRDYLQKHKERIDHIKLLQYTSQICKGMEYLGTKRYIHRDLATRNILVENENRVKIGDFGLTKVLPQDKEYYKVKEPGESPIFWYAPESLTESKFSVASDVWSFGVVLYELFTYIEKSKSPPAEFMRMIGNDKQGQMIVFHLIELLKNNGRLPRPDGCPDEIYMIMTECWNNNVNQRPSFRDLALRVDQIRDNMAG

SMILES	inhibition at 20 µM (DU145 (Prostate Cancer); [5])	inhibition at 20 µM (PC3 (Prostate Cancer))	inhibition at 20 µM [1]	inhibition at 20 µM ([2]; Table 1, 40 hr incubation)	inhibition at 20 µM ([3]; Table 1, 40 hr incubation)	inhibition at 20 µM (DU145 (Prostate Cancer); [6])	inhibition at 20 µM ([2]; Table 2, 40 hr incubation)	inhibition at 20 µM ([3]; Table 2, 40 hr incubation)	Tubulin inhibition of tubulin polymerisation [4]
CCCC(Nc1cncc(-c2ccc(OCCN(CC)CC)c(OC)c2)n1)c1cncc(C)c1 (stereo not drawn)	< 50%	< 50%	> 50%	> 50%	> 50%	–	–	–	–
CCCC(Nc1cncc(-c2ccc(CN3CCOCC3)cc2)n1)c1ccccc1 (stereo not drawn)	< 50%	< 50%	< 50%	> 50%	< 50%	–	–	–	–
CCCC(Nc1cncc(-c2ccc(CN3CCN(C)CC3)cc2)n1)c1ccccc1 (stereo not drawn)	< 50%	< 50%	< 50%	> 50%	> 50%	–	–	–	–
CCCC(Nc1cncc(-c2ccc(OCCCN3CCOCC3)c(OC)c2)n1)c1ccccc1 (stereo not drawn)	< 50%	> 50%	> 50%	> 50%	> 50%	–	–	–	–
CCCC(Nc1cncc(-c2ccc(NC(=O)N3CCN(C)CC3)c(OC)c2)n1)c1cccnc1 (stereo not drawn)	< 50%	> 50%	< 50%	> 50%	> 50%	–	–	–	–
CCCC(Nc1cncc(-c2ccc(CNC(=O)C3CCC(=O)N3)cc2)n1)c1ccccc1 (stereo not drawn)	< 50%	< 50%	> 50%	> 50%	> 50%	–	–	–	–
CCCC(Nc1cncc(-c2ccc(OCCCCN3CCOCC3)c(OC)c2)n1)c1ccccc1 (stereo not drawn)	< 50%	< 50%	> 50%	> 50%	> 50%	–	–	–	–
CCCC(Nc1cncc(-c2ccc(CN(C)C)cc2)n1)c1ccccc1 (stereo not drawn)	< 50%	< 50%	> 50%	> 50%	> 50%	–	–	–	–
CCCC(Nc1cncc(-c2ccc(CN3CCC[C@H]3CO)cc2)n1)c1ccccc1 (stereo partly drawn)	< 50%	< 50%	> 50%	> 50%	> 50%	–	–	–	–
CCCC(Nc1cncc(-c2ccc(CN3CCC(O)CC3)cc2)n1)c1ccccc1 (stereo not drawn)	< 50%	< 50%	> 50%	> 50%	> 50%	–	–	–	–
CCCC(Nc1cncc(-c2ccc(NC(=O)NCC)cc2)n1)c1cccnc1 (stereo not drawn)	< 50%	< 50%	> 50%	> 50%	> 50%	–	–	–	–
CCCC(Nc1cncc(-c2ccc(NC(=O)c3cccnc3)c(OC)c2)n1)c1cccnc1 (stereo not drawn)	< 50%	< 50%	> 50%	> 50%	> 50%	–	–	–	–
COc1cc(-c2nc(N[C@H](C)c3ccccc3)nnc2C)cc(OC)c1OC	< 50%	< 50%	< 50%	> 50%	> 50%	–	–	–	–
CCCC(Nc1cncc(-c2cc(OC)c(OC)c(OC)c2)c1)c1ccccc1 (stereo not drawn)	< 50%	> 50%	> 50%	> 50%	> 50%	–	–	–	–
CCCC(Nc1cncc(-c2ccc(NC(=O)C3CCNCC3)c(OC)c2)n1)c1cccnc1 (stereo not drawn)	< 50%	< 50%	> 50%	> 50%	< 50%	–	–	–	–
CCCC(Nc1cncc(-c2ccc(C(=O)NCCN(C)C)cc2)n1)c1ccccc1 (stereo not drawn)	< 50%	< 50%	< 50%	> 50%	> 50%	–	–	–	–
CCCC(Nc1cncc(-c2ccc(C(=O)NCCCN(CC)CC)cc2)n1)c1ccccc1 (stereo not drawn)	> 50%	< 50%	> 50%	> 50%	> 50%	–	–	–	–
CCCC(Nc1cncc(-c2ccc(C(=O)NCCCN3CCOCC3)cc2)n1)c1ccccc1 (stereo not drawn)	< 50%	< 50%	< 50%	> 50%	> 50%	–	–	–	–
CC[C@H](Nc1cncc(-c2ccc(O)c(OC)c2)n1)c1ccccc1	–	–	–	–	–	> 50%	> 50%	> 50%	+ (compounds which inhibited tubulin polymerisation by greater than 50% at 50 μM)
COc1cc(-c2cncc(N[C@@H](C)c3ccccc3)n2)ccc1O	–	–	–	–	–	> 50%	> 50%	> 50%	+ (compounds which inhibited tubulin polymerisation by greater than 50% at 50 μM)
COc1cc(-c2cncc(NC(C)c3cccc(NC(=O)c4cccnc4)c3)n2)ccc1O (stereo not drawn) [drawing 124]	–	–	–	–	–	–	–	–	+ (compounds which inhibited tubulin polymerisation by greater than 50% at 50 μM)
